{
  "source": "patent EP2849731B1",
  "about": "“FORMULATION FOR LOW BIOAVAILABILITY SUBSTANCES CONTAINING A N-ACETYLCYSTEINE-CHITOSAN SALT” (Labomar S.r.l., priority 2012, dated 2013)",
  "key": {"[1]": {"assay": "Intestinal passage test: curcumin passage through the Caco-2 monolayer, HPLC-UV", "conditions": "human", "description": "The passage through a monolayer of Caco-2 cells of Composition A at non-cytotoxic concentration is monitored at defined times (0 min- 15 min -30 min and 60 min).\nThe Caco-2 cells grown as a monolayer on a permeable artificial support reproduce the intestinal epithelial layer (monolayer of cells that are polarized and coupled by tight junctions). The flow through the monolayer allows to establish the permeability of a substance.\nAfter 21 days of growth on insert, the differentiated cells show an apical side, corresponding to the intestinal lumen in vivo, and one that corresponds to the basolateral compartment of the blood and lymphatic circulation of the organism.\nThe culture medium is aspirated from all cell monolayers before the experiments of permeability. All cell monolayers are washed once with HBSS solution (Hank's Balanced Salt Solution) and left to equilibrate at 37°C for 20 min. […] In parallel, the same amount of substance is divided into equal aliquots and represents the apical sample at time = 0 minutes (0'AP). At the receiving side of the monolayer 1.2 mL of 1X HBSS-Hepes 1% (pH 7.4) are added. […]\nUsing the mathematical formulas described by Arturrson the relationships are calculated between concentrations of substances in the basolateral (receiver) and in the apical (donor) compartments at each sampling time."}, "[2]": {"assay": "Curcumin detection by HPLC-UV in the 0.25% w/w solution of Composition A in buffer", "assay_type": "physicochemical", "conditions": "due to incomplete solubility in the buffers"}},
  "data": [
    {"smiles": "COc1cc(/C=C/C(=O)CC(=O)/C=C/c2ccc(O)c(OC)c2)ccc1O", "note": "[Curcumin, curcumin]", "values": [
      {"measurement": "Papp A→B at 60 min, 1.404 mM", "setting": "[1]", "value": 0.804, "unit": "×10⁻⁶ cm/s"},
      {"measurement": "loss in title (theoretical curcumin content not detected in the solution)", "setting": "[2]", "value": 23, "unit": "%"}
    ]}
  ]
}
